Assay results: article PMC317294 (BMC Pharmacology, 2003)

Tests used:
Ala^348,353 hMOR [1] = target: T1, Ala^348,353 hMOR (Homo sapiens, UniProt P35372, C348A/C353A); assay type: cell-based
[2] = target: T2, human mu opioid receptor (hMOR) (Homo sapiens, UniProt P35372); assay type: cell-based
[3] = target: T2, human mu opioid receptor (hMOR); assay: biochemical; conditions: read-out: maximal efficacy as percentage of stimulation above basal levels
Ala^348,353 hMOR [4] = target: T1, Ala^348,353 hMOR; assay: biochemical; conditions: read-out: maximal efficacy as percentage of stimulation above basal levels
Ala^348,353 hMOR [5] = target: T1, Ala^348,353 hMOR; assay type: binding

T1 sequence (P35372 whole entry C348A/C353A): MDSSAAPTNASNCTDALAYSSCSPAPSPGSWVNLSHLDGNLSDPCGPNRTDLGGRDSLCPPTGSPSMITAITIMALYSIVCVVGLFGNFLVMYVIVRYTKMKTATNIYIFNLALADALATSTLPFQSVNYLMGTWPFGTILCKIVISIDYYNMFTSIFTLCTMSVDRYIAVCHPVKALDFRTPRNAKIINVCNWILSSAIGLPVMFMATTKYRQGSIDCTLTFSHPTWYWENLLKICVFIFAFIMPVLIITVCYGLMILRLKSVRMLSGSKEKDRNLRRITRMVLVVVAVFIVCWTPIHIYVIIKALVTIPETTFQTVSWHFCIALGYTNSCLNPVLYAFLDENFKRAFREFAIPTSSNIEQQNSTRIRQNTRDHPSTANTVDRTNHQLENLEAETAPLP
T2 sequence (P35372 whole entry): as the sequence (P35372 whole entry C348A/C353A) above, with A348C, A353C counted along it

COc1cccc2c1[C@]13CCN(CC4CC4)[C@H](C2)[C@]1(OC)CCC(=O)C3 [Cyprodime]
Ala^348,353 hMOR expression level after ligand treatment (Ala^348,353 hMOR [1]): 245 ± 20%
hMOR expression level after ligand treatment [2]: 103 ± 9%

C[C@@H](NC(=O)[C@@H](N)Cc1ccc(O)cc1)C(=O)NCC(=O)N(C)[C@@H](Cc1ccccc1)C(=O)NCCO [DAMGO, [D-Ala^2, N-Me-Phe^4, Gly^5-ol]-enkephalin]
Emax [3]: 366 ± 23%
Emax (Ala^348,353 hMOR [4]): 164 ± 6%

C[C@@H](NC(=O)[C@@H](N)Cc1ccc(O)cc1)C(=O)N[C@@H](Cc1ccccc1)C(=O)NCC(=O)N[C@@H](Cc1ccc(O)cc1)C(=O)N1CCC[C@H]1C(=O)N[C@@H](CO)C(N)=O [Dermorphin]
increase in binding affinity for Ala^348,353 hMOR compared to hMOR (Ala^348,353 hMOR [5]): approximately 20 fold
